Tests used:
GluN1+NR2B = biological target: T1, GluN1+NR2B (Homo sapiens, UniProt Q05586+Q13224); assay: Whole-cell patch clamp, blocking of GluN1+NR2B NMDAR current in CHO cells; format: cell-based; conditions: 100 μM NMDA and 1 μM glycine, read-out: IC50 of competitive antagonism against glutamate binding GluN1+NR2B currents
T1 construct: expressed in transfected cells; host or cells: CHO cells
Experimental: Figure a illustrates LK-2 concentration-dependent blocking of signal of GluN1+GluN2A and GluN1+GluN2B subtypes of NMDAR currents (recorded from the same CHO cell) in patch clamp experiments, with 100 μM NDMA and 1 μM glycine used to activate NMDAR currents. LK-2 concentrations were 1, 10, 100, and 500 μM in sequence. Figure b illustrates the dose-response curves fitted based on the current amplitudes recorded in Figure a, with IC50 representing the half-maximal inhibitory concentration. Smaller IC50 values indicate stronger blocking effects of the compound.
(§1) [drawing 3] • 2. Electrophysiological experiments refer to the use of patch clamp techniques to overexpress ASICs (ASIC1a) and NMDARs (GluNR1+NR2A or GluNR1+NR2B) in CHO cell lines (Chinese hamster ovary cells), with the above-mentioned proteins carrying GFP green fluorescent protein for identification under fluorescence microscopy. The synthesized small molecules are separately tested for their blocking effects on the currents generated by the two types of receptors, and the IC50 values are calculated. • 2.1 The experimental steps of the membrane clamp technique are as follows.
Whole-cell patch clamp recordings were performed on neurons or CHO cells cultured in a cell-culture dish mounted on a fixed stage upright microscope. The recording electrode (resistance 4-6 MΩ) was made of 1.5 mm borosilicate glass. […]

ASIC1a = biological target: T2, ASIC1a (Homo sapiens, UniProt P78348); assay: Whole-cell patch clamp, competitive blocking of glutamate-potentiated ASIC1a current in CHO cells; format: cell-based; conditions: pH 7.0, 500 μM glutamate, read-out: IC50 of competitive antagonism against the glutamate binding ASIC1a current
T2 construct: expressed in transfected cells
T2 sequence (P78348 1-528): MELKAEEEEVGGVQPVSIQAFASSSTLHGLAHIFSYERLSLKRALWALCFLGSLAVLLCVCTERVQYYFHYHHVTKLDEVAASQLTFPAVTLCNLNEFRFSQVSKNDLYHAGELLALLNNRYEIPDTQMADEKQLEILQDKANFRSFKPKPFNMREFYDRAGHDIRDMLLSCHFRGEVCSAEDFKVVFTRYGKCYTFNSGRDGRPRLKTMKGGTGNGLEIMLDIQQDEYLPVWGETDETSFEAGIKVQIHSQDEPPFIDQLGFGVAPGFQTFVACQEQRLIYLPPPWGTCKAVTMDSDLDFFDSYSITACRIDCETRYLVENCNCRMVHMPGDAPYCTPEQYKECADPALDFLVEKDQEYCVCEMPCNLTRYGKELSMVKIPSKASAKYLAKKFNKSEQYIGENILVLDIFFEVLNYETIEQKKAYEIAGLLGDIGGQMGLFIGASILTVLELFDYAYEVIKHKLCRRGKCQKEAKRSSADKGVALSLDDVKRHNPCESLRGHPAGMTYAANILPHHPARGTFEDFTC
Experimental: Figure a illustrates the LK-2 concentration-dependent blocking of signal of ASIC1a current (recorded from the same CHO cell) activated at pH 7 in patch clamp experiments, with a glutamate concentration of 500 μM and LK-2 concentrations of 1, 10, 50, and 100 μM in sequence. […] Smaller values indicate stronger blocking effects of the compound.
as §1, with “follows. […]” for “follows.”
Chinese hamster ovary cells (CHO) and HEK293T cells (provided by the Chinese Academy of Sciences Stem Cell Bank) were cultured separately in F12 and DMEM media (Gibco) containing 10% FBS (Gibco). […] All experiments were performed 24-48 hours after transfection, and all culture dishes were washed three times with ECF before the experiment, and GFP-positive CHO cells were observed under a fluorescence microscope for patch clamp recording. […]

T1 sequence (Q13224 27-1484, other chains not shown): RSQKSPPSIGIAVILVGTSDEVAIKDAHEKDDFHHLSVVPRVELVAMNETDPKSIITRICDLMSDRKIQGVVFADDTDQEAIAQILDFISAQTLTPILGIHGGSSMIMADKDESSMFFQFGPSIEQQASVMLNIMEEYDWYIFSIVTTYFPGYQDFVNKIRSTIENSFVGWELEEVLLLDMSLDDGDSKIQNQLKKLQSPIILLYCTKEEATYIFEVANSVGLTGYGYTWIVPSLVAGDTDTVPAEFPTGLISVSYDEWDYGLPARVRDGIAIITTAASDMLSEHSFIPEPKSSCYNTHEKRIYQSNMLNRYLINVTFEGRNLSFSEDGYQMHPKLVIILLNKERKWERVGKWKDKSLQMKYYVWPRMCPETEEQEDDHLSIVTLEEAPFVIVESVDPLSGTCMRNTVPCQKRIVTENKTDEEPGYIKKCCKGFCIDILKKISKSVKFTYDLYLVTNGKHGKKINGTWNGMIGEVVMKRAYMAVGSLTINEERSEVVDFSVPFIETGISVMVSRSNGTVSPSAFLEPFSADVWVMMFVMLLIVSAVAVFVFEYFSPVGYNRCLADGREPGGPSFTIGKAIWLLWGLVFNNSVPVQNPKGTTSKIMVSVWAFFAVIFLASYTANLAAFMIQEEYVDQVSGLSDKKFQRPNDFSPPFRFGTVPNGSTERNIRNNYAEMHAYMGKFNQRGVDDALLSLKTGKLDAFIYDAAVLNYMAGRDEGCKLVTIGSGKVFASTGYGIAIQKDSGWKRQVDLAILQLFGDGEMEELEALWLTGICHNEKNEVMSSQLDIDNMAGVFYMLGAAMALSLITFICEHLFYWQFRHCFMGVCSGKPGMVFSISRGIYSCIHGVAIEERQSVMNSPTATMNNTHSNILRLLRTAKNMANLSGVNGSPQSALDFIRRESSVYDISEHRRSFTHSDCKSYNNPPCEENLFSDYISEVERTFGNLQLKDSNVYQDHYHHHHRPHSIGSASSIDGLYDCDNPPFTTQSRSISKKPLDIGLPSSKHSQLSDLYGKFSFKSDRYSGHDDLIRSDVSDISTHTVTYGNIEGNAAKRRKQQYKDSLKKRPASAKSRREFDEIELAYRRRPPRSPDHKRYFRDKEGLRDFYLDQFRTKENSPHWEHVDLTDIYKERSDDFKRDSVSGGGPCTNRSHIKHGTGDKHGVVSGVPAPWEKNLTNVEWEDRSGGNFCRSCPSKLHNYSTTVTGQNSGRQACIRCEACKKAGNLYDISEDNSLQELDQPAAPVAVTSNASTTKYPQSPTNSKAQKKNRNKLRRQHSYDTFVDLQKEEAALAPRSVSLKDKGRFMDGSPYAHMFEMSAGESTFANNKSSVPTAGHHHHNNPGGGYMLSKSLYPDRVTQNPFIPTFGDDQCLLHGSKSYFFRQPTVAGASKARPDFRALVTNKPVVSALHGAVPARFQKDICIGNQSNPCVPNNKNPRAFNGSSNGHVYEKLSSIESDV

- IC50 (GluN1+NR2B): 386 ± 109 µM
- IC50 (ASIC1a): 6.6 ± 2.1 µM
Structure (SMILES): O=C(O)C1CN(C(c2ccccc2)P(=O)(O)O)CCN1 (centres unmarked) [LK-2]
